Experimental data published in US11226337B2, “Chemoproteomic profiling of protein electrophilic and oxidative post-translational modifications” (Zenagem, LLC, priority 2017, dated 2022).

Legend:
Test in all cases: SILAC RP-ABPP
Type in all cases: cell-based
[1] = biological target: T1, PSAP Proactivator polypeptide (P07602) (Homo sapiens, UniProt P07602); details: SILAC H/L, MDA-MB-231
T1 construct: In Situ Labelling of Cells with Hydrazine Probes for MS Experiments; endogenous in cells; host or cells: HEK293T and MDA-MB-231
T1 sequence (P07602 60-524): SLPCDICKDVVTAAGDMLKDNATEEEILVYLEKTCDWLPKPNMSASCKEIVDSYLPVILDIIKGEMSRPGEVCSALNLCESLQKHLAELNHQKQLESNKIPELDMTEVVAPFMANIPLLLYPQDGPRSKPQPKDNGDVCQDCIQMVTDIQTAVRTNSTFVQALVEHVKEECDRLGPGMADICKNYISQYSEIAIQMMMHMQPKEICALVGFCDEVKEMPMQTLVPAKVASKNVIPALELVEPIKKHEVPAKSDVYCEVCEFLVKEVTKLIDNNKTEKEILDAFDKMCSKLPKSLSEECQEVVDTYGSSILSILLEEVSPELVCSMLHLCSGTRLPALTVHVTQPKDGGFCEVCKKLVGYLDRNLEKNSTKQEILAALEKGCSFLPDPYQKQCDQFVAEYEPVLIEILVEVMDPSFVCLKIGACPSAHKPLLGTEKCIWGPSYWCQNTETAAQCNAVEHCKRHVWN

[2] = biological target: T2, GNS Nacetylglucosamine6sulfatase (P15586) (Homo sapiens, UniProt P15586); details: SILAC H/L, MDA-MB-231
T2 construct: In Situ Labelling of Cells with Hydrazine Probes for MS Experiments; endogenous in cells
T2 sequence (P15586 37-552): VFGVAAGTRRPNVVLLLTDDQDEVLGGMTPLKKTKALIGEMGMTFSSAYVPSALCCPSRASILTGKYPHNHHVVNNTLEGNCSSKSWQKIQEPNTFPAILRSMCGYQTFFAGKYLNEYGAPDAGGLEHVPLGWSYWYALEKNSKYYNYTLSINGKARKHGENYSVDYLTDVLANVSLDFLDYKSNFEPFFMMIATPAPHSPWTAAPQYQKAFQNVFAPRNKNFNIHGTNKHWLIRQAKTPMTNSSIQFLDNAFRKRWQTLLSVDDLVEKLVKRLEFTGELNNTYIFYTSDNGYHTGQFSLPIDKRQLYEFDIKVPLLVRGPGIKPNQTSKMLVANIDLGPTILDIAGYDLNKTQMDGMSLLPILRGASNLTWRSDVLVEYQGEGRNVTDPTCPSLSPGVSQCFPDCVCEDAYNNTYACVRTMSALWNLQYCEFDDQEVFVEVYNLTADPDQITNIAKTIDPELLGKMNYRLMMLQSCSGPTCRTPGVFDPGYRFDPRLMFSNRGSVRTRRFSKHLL

[3] = biological target: T3, CTSD Cathepsin D (P07339) (Homo sapiens, UniProt P07339); details: SILAC H/L
T3 construct: In Situ Labelling of Cells with Hydrazine Probes for MS Experiments; endogenous in cells; host or cells: HEK293T and MDA-MB-231
T3 sequence (P07339 65-412): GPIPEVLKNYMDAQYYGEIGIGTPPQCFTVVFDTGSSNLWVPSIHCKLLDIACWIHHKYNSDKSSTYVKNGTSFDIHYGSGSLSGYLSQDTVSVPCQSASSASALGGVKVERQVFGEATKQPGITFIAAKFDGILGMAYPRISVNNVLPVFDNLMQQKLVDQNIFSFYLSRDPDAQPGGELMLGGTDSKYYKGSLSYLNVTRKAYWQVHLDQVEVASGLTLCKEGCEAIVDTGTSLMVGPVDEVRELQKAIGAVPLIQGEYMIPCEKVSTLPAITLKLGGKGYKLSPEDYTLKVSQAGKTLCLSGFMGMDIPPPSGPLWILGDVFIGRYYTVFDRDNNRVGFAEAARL

[4] = biological target: T4, SERPINE1 Plasminogen activator inhibitor 1 (P05121) (Homo sapiens, UniProt P05121); details: SILAC H/L, MDA-MB-231
T4 construct: In Situ Labelling of Cells with Hydrazine Probes for MS Experiments; endogenous in cells
T4 sequence (P05121 24-402): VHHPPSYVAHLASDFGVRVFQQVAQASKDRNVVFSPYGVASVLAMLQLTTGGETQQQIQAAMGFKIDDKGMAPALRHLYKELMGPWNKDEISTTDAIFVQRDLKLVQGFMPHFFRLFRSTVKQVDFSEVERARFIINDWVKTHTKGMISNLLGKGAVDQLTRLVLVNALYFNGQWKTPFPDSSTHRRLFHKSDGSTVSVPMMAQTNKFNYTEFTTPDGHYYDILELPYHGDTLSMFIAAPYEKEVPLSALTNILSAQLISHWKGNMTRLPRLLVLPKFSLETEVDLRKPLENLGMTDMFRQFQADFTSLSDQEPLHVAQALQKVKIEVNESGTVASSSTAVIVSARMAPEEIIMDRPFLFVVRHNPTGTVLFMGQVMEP

enrichment ratioavg ([1]; probe 2 1 mM 0.5 h vs probe 4) | competition ratioavg ([1]; probe 2 vs probe 2+10x probe 4) | enrichment ratioavg ([2]; probe 2 1 mM 0.5 h vs probe 4) | competition ratioavg ([2]; probe 2 vs probe 2+10x probe 4) | enrichment ratioavg ([3]; probe 2 1 mM 0.5 h vs probe 4, MDA-MB-231) | competition ratioavg ([3]; probe 2 vs probe 2+10x probe 4, MDA-MB-231) | enrichment ratioavg ([4]; probe 2 1 mM 0.5 h vs probe 4) | competition ratioavg ([4]; probe 2 vs probe 2+10x probe 4) | SMILES | enrichment ratioavg ([1]; probe 1 3 mM 0.5 h vs probe 3) | competition ratioavg ([1]; probe 1 vs probe 1+10x probe 3) | enrichment ratioavg ([2]; probe 1 3 mM 0.5 h vs probe 3) | competition ratioavg ([2]; probe 1 vs probe 1+10x probe 3) | enrichment ratioavg ([3]; probe 1 3 mM 0.5 h vs probe 3, HEK293T) | competition ratioavg ([3]; probe 1 vs probe 1+10x probe 3, HEK293T) | enrichment ratioavg ([4]; probe 1 3 mM 0.5 h vs probe 3) | competition ratioavg ([4]; probe 1 vs probe 1+10x probe 3)
5 | 5 | 7 | 3 | 16 | 4 | 20 | 3 | C#CCCNC(=O)c1ccc(NN)cc1.Cl [probe 2, N-(but-3-yn-1-yl)-4-hydrazinylbenzamide hydrochloride] | – | – | – | – | – | – | – | –
– | – | – | – | – | – | – | – | C#CCNN.Cl [probe 1, prop-2-yn-1-ylhydrazine hydrochloride] | 12 | 3 | 10 | 3 | 13 | 1 | 17 | 3
